Experimental data taken from PMC11127902, “Rescuing tri-heteromeric NMDA receptor function: the potential of pregnenolone-sulfate in loss-of-function GRIN2B variants” (Cellular and Molecular Life Sciences: CMLS, 2024).
Read-outs that look alike come from different tables or passages of the source.

What was measured:
[1] = system: Pure variant di-heteromeric GluN2B-A819T; set-up: method as in PMID 28377535; settings: glutamate; ref 25; cited from earlier work
[2] = system: Pure variant di-heteromeric GluN2A-S644G; set-up: method as in PMID 32577763; settings: glutamate; di-heteromer section; cited from earlier work
[3] = system: Pure variant di-heteromeric GluN2A-D731N; set-up: method as in PMID 28182669; settings: glutamate; ref 33; cited from earlier work
[4] = system: Mixed di-heteromeric GluN2A-wt/GluN2A-M817V; set-up: method as in PMID 28126851; settings: glutamate; ref 91; cited from earlier work
[5] = system: Mixed tri-heteromeric GluN2A-L649V/ GluN2B-wt; set-up: method as in PMID 35110392; settings: glutamate; ref 10; cited from earlier work
[6] = system: Pure variant di-heteromeric GluN2A-L649V; set-up: method as in PMID 35110392; settings: glutamate; ref 10; cited from earlier work
[7] = system: Pure variant di-heteromeric GluN2B-G543R; set-up: method as in PMID 35110392; settings: glutamate; ref 10; cited from earlier work
[8] = system: Pure variant di-heteromeric GluN2B-A639V; set-up: method as in PMID 35110392; settings: glutamate; ref 10; cited from earlier work
[9] = system: Mixed di-heteromeric GluN2B-wt/GluN2B-C461F; set-up: method as in PMID 27839871; settings: glutamate; ref 21; cited from earlier work
[10] = system: wt tri-heteromeric GluN2A-wt/GluN2B-wt NMDAR; settings: glutamate, cited from earlier work
[11] = system: Mixed di-heteromeric GluN2A-wt/GluN2A-D731N; set-up: method as in PMID 28182669; settings: glutamate; ref 33; cited from earlier work
[12] = system: non-tagged purely di-heteromeric GluN2B-G689S; settings: read-out: Glutamate EC50 (adapted from[16]); non-tagged human receptors; cited from earlier work
[13] = system: Mixed di-heteromeric GluN2A-wt/GluN2A-P552R; set-up: method as in PMID 28095420; settings: glutamate; ref 32; cited from earlier work
[14] = system: Mixed tri-heteromeric GluN2A-wt/ GluN2B-A819T; set-up: method as in PMID 35110392; settings: glutamate; ref 10; cited from earlier work
[15] = system: wt di-heteromeric GluN2B NMDAR; settings: glutamate, cited from earlier work
[16] = system: Mixed tri-heteromeric GluN2A-P552R/ GluN2B-wt; set-up: method as in PMID 35110392; settings: glutamate; ref 10; cited from earlier work
[17] = molecular target: T1, Tri-heteromeric GluN2A-wt/GluN2B-G689S (Rattus norvegicus, UniProt P35439+Q00959+Q00960, A876H/F846L/G689S/G856D/H848F/K857R/M851T/M860L/Q845K/V861L); assay type: cell-based; settings: glutamate dose-response
T1 construct: expressed in transfected cells; host or cells: Xenopus laevis oocytes, mRNA injection
From the text: (§1) Aliquots were thawed before each experiment.

[18] = molecular target: T2, Tri-heteromeric GluN2A-wt/GluN2B-G689C (Rattus norvegicus, UniProt P35439+Q00959+Q00960, A876H/F846L/G689C/G856D/H848F/K857R/M851T/M860L/Q845K/V861L); assay type: cell-based; settings: glutamate dose-response
T2 construct: expressed in transfected cells; host or cells: Xenopus laevis oocytes, mRNA injection
From the text: as §1

[19] = system: Tri-heteromeric GluN2A-wt/GluN2B-G689C; assay type: cell-based, rat; settings: compared to GluN2A-wt + GluN2B-wt tri-heteromeric channels
From the text: as §1

[20] = system: Tri-heteromeric GluN2A-wt/GluN2B-G689S; assay type: cell-based, rat; settings: compared to GluN2A-wt + GluN2B-wt tri-heteromeric channels
From the text: as §1

[21] = system: Mixed tri-heteromeric GluN2A-S644G/ GluN2B-wt; set-up: method as in PMID 35110392; settings: glutamate; ref 10; cited from earlier work
[22] = system: Mixed di-heteromeric GluN2B-wt/GluN2B-H486A; set-up: method as in PMID 24607230; settings: glutamate; ref 8; cited from earlier work
[23] = system: Mixed di-heteromeric GluN2A-wt/GluN2A-H485A; set-up: method as in PMID 24607230; settings: glutamate; ref 8; cited from earlier work
[24] = system: Mixed tri-heteromeric GluN2A-H485A/ GluN2B-wt; set-up: method as in PMID 24607230; settings: glutamate; ref 8; cited from earlier work
[25] = system: Mixed tri-heteromeric GluN2A-wt/ GluN2B-H486A; set-up: method as in PMID 24607230; settings: glutamate; ref 8; cited from earlier work
[26] = system: Mixed tri-heteromeric GluN2A-E551K/ GluN2B-wt; set-up: method as in PMID 35110392; settings: glutamate; ref 10; cited from earlier work
[27] = system: Pure variant di-heteromeric GluN2A-T690A; set-up: method as in PMID 24607230; settings: glutamate; ref 8; cited from earlier work
[28] = system: wt di-heteromeric GluN2A NMDAR; settings: glutamate, cited from earlier work
[29] = molecular target: Tri-heteromeric GluN2A-wt/GluN2B-wt (Rattus norvegicus, UniProt P35439+Q00959+Q00960, A876H/F846L/G856D/H848F/K857R/M851T/M860L/Q845K/V861L); experiment: TEVC in Xenopus oocytes; settings: glutamate dose-response
Tri-heteromeric GluN2A-wt/GluN2B-wt, sequence (Q00959 23-1464, other chains not shown): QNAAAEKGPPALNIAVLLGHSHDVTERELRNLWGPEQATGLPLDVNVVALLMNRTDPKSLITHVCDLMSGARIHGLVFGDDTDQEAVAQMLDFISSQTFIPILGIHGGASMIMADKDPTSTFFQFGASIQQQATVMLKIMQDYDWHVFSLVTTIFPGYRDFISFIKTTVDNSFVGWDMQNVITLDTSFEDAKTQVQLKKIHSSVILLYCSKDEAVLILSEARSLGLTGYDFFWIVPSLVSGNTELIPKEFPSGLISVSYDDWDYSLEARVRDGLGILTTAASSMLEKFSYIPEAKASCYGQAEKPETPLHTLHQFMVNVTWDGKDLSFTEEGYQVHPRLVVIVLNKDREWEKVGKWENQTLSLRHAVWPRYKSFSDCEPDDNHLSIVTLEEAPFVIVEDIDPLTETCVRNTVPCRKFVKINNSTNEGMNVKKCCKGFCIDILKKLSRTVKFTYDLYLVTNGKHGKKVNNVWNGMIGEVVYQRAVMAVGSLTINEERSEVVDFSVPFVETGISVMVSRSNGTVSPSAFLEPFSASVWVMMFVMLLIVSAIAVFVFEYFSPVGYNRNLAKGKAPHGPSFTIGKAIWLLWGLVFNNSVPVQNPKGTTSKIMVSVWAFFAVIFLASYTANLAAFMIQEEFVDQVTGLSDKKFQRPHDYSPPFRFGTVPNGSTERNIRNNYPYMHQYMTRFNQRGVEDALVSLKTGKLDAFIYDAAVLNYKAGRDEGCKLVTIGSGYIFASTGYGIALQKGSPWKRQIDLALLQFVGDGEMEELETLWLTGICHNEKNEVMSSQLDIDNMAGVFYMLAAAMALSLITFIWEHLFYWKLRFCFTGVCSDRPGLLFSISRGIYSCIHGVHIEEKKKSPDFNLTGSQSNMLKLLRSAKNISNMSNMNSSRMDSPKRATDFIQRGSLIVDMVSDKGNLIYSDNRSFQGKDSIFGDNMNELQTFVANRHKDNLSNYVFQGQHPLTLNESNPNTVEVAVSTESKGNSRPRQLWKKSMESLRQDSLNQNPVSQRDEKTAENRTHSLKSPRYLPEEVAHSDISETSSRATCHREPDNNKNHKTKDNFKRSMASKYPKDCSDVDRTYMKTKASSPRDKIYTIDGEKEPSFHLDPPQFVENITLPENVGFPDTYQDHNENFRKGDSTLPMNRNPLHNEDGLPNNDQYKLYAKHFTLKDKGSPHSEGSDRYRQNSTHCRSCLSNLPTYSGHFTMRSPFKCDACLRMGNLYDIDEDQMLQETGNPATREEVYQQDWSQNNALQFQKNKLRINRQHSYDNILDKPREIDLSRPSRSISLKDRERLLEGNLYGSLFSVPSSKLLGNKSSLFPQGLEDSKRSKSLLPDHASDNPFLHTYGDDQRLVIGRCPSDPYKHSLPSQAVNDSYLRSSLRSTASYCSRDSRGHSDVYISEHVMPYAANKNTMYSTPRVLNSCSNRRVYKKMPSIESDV
Tri-heteromeric GluN2A-wt/GluN2B-wt, sequence (Q00960+Q00959 fused with the stated changes, other chains not shown): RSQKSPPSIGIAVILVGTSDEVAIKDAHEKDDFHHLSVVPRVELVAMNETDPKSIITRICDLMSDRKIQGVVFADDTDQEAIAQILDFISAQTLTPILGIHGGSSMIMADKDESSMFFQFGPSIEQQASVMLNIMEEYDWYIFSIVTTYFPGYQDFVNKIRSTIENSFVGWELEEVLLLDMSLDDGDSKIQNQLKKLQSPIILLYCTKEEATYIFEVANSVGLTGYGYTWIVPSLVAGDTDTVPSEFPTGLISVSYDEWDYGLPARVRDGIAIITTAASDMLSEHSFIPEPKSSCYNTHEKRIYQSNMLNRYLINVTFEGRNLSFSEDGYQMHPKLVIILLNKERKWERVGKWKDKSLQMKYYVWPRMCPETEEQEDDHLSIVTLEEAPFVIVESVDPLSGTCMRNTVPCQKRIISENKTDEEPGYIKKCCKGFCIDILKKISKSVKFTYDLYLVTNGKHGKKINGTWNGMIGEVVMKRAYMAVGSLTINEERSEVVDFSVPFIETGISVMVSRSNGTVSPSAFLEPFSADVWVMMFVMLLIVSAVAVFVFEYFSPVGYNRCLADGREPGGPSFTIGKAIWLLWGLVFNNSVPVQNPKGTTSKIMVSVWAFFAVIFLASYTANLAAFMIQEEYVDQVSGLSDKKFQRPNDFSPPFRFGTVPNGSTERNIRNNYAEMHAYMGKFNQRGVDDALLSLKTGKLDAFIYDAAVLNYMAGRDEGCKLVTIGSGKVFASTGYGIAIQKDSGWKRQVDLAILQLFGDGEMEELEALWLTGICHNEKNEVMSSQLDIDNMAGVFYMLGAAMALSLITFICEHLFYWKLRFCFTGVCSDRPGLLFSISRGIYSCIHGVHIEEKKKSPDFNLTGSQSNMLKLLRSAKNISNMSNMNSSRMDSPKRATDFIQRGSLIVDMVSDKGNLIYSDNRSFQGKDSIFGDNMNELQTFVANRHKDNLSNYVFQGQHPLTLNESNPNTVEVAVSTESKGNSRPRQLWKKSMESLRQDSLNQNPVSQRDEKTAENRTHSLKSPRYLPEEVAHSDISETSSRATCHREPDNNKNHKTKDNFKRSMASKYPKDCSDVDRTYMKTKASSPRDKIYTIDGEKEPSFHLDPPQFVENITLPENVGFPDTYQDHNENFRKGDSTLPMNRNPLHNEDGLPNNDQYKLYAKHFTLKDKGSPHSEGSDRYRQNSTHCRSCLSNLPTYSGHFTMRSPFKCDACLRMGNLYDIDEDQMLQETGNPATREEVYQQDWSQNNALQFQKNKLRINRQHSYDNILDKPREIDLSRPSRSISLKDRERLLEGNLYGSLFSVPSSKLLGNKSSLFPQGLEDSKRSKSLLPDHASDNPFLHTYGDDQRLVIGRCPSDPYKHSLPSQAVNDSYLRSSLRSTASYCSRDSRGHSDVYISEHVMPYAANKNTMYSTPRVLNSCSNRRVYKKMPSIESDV
Method: Two electrode voltage clamp (TEVC) recordings were carried out 24–72 h after mRNA injections, as previously described [17, 37]. We use a commercial amplifier (Warner Instruments, USA) and Digitizer (Digidata-1550B; Molecular Devices, USA), controlled by the pClamp10 software (Molecular Devices, USA). Electrode were made by pulling glass capillaries (Narishige, Japan) filled with 3 M KCl, into which we inserted chlorinated silver wires. […] For hERG channel recordings, oocytes were clamped at (− 60) mV for 1 s, followed by a voltage jump to 20 mV for 4 s, and an additional voltage jump to (− 50) mV for 6 s and return to baseline voltage (see Supplementary. 6f), as previously described [53].
When assessing potentiation by PS, all other solutions also included equal amounts of the DMSO carrier (0.2%).
Electrophysiology data were analyzed by Clampfit 11.2 (Molecular Devices, USA), plotted using GraphPad 8 or SigmaPlot 11(Systat software, Inc.). […] In all TEVC recordings in oocytes, the responses were normalized to current amplitude obtained from that individual cell. […] All data are shown as mean ± SEM. In all experiments N indicates the number of independent experiments, whereas n indicates the number of cells recorded. In each experiment, data underwent normality test prior to statistical assessment. Normally distributed data were assessed for significance by using paired t-test or one-way ANOVA for multiple group comparison and post hoc Tukey test or Dunnett's test. Similarly, in the case of non-normally distributed data significance was assessed by Mann Whitney test or Kruskal–Wallis ANOVA on ranks test followed by Dunn’s multiple comparison post hoc; n.s., non-significant; *p < 0.05; **p < 0.01; ***p < 0.001. […] Leak expression was evaluated by normalizing the maximal current (Imax) of each ER-retained NMDAR composition to Imax of control group (which was recorded in all experiments). […]

For `N[C@@H](CCC(=O)O)C(=O)O` [Glutamate, glutamate], the EC50 [1] is listed as 0.58 µM, the EC50 [2] is listed as 0.05 µM and the EC50 [3] is listed as 30000 µM. For the same compound, the EC50 [4] was 1.1 µM, the EC50 [5] was 0.36 µM and the EC50 [6] was 0.05 µM. For the same compound, the EC50 [7] was 0.22 µM, the EC50 [8] was 0.28 µM and the EC50 [9] was 61 µM. For the same compound, the EC50 ([10]; ref 8) was 2.6 µM, the EC50 ([10]; ref 10) was 2.2 µM and the EC50 [11] was 6450 µM. The EC50 [12] was 2500 ± 400 µM, the EC50 [13] was 1.2 µM and the EC50 [14] was 0.71 µM. For the same compound, the EC50 ([15]; control of GluN2B-E413G) was 0.9 µM, the EC50 ([15]; ref 8) was 1.6 µM and the EC50 [16] was 0.56 µM. The “Hill coefficient (nH)” value [17] was 1.06 ± 0.13 n.s (N = 1, n = 11), the “Hill coefficient (nH)” value [18] was 0.85 ± 0.14 n.s (N = 1, n = 10) and the “increase in EC50” value [19] was ~ 300 fold. For the same compound, the “increase in EC50” value [20] was ~ 600 fold, the EC50 [21] was 0.49 µM and the EC50 [22] was 75 µM. The EC50 [23] was 220 µM, the EC50 [24] was 210 µM and the EC50 [25] was 140 µM. For the same compound, the EC50 [26] was 0.7 µM, the EC50 [27] was 2700 µM and the EC50 ([28]; ref 8) was 4.2 µM. The EC50 ([28]; ref 19) was 4.5 µM, the EC50 ([28]; ref 32) was 3.9 µM and the EC50 ([28]; ref 33) was 5.7 µM. For the same compound, the EC50 ([28]; ref 39) was 4 µM, the EC50 ([28]; ref 91) was 3.6 µM and the “Hill coefficient (nH)” value [29] was 0.77 ± 0.22 (N = 3, n = 33).
